Laboratory results reported in US10729710B2, “Catecholamine prodrugs for use in the treatment of Parkinson's disease” (H. Lundbeck A/S, priority 2017, dated 2020).
Where a name gives a salt, the structure may show the parent alone. Blank lines part the entries; values can stand above or below the molecule they belong to.

Assays:
[1] = male, Han Wistar, rat, in vivo, po, 4 h
Method: (§1) Plasma was placed on water-ice following collection. Final storage at approximately −70° C.
Mass spectrometer (UPCLC-MS/MS) Waters Acquity I-Class-Waters Xevo TQ-S. Analytical column Acquity HSS T3 C18 50×2.1 mm, 1.8 μm. Mobile phase A: 10 mM NH4-Formate 0.2% formic acid:Acetonitril (95:5). Mobile phase B: 10 mM NH4-Formate 0.2% formic acid:Acetonitril (5:95). Gradient run from 95/5% to 5/95% in 2.40 min. Flow rate 0.3 mL/min. MRM detection of test items and the added analytical standards
The rats had unrestricted access to the diet. Male Han Wistar rats were administered a single dose of apomorphine either subcutaneously or orally by gavage, or administered a single dose of apormorphine conjugates orally by gavage.

human D1 receptor = human D1 receptor (Homo sapiens (Human), UniProt P21728); assay: Dopamine D1 receptor agonism, HTRF cAMP assay; assay type: cell-based; settings: normalized to 30 uM dopamine = 100%
Chain of human D1 receptor (P21728 whole entry): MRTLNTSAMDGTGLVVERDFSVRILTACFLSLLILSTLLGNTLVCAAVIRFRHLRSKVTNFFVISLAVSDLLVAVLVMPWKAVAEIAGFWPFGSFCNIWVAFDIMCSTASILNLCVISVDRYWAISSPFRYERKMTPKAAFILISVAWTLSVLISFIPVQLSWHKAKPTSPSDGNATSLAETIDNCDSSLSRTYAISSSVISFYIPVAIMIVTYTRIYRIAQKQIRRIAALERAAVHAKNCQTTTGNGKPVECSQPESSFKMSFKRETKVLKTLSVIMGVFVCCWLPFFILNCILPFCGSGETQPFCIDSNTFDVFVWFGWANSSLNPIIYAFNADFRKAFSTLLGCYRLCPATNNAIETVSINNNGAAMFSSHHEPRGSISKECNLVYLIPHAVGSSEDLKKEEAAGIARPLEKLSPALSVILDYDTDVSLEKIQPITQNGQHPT
Method: Dopamine D1 receptor agonism was measured using a HTRF cAMP from CisBio using the protocol developed by HD Biosciences (China). Briefly, the assay is a homogeneous time resolved-fluorescence resonance energy transfer (HTRF) assay that measures production of cAMP by cells in a competitive immunoassay between native cAMP produced by cells and cAMP-labeled with XL-665. A cryptate-labeled anti-cAMP antibody visualizes the tracer. The assay was performed in accordance with instructions from manufacturer.
Test compounds were added to wells of microplates (384 format). HEK-293 cells expressing the human D1 receptor were plated at 1000 cells/well and incubated 30 min at room temperature. cAMP-d2 tracer was added to wells and followed by addition of Anti-cAMP antibody-cryptate preparation and incubated for 1 h at room temperature in dark. HTRF cAMP was measured by excitation of the donor with 337 nm laser (the “TRF light unit”) and subsequent (delay time 100 microseconds) measurement of cryptate and d2 emission at 615 nm and 665 nm over a time window of 200 microseconds with a 2000 microseconds time window between repeats/100 flashes). HRTF measurements were performed on an Envision microplate reader (PerkinElmer). The HTRF signal was calculated as the emission-ratio at 665 nm over 615 nm. The HTRF ratio readout for test compounds was normalized to 0% and 100% stimulation using control wells with DMSO-solvent or 30 uM dopamine. Test compound potency (EC50) was estimated by nonlinear regression using the sigmoidal dose-response (variable slope) using Xlfit 4 (IDBS, Guildford, Surrey, UK, model 205). y=(A+((B−A)/(1+((C/x)^D)))) where y is the normalized HTRF ratio measurement for a given concentration of test compound, x is the concentration of test compound, A is the estimated efficacy at infinite compound dilution, and B is the maximal efficacy. C is the EC50 value and D is the Hill slope coefficient. EC50 estimates were obtained from an independent experiment and the logarithmic average was calculated. Dopamine D2 Receptor Agonism

human 5-HT2B receptor [2] = target: T1, human 5-HT2B receptor (Homo sapiens (Human), UniProt P41595); assay: 5-HT2B agonist activity assay (IP1 production, HTRF); assay type: cell-based; settings: read-out: 5-HT2B Emax
T1 sequence (P41595 whole entry): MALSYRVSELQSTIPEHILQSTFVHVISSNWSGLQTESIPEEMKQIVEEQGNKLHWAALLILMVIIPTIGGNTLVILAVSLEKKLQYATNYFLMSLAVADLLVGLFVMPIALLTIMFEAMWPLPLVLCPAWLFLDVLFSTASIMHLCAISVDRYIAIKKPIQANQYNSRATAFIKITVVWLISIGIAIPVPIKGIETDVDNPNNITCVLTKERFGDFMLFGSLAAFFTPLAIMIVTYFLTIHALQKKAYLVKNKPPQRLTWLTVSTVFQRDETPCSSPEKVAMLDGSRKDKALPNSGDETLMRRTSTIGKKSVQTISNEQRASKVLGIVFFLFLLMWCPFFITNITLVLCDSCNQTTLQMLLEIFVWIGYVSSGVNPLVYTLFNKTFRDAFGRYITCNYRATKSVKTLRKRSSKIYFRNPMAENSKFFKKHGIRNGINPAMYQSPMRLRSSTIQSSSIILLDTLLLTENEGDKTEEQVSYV
Method: Evaluation of the agonist activity of compounds (I), (Ia) and (Ib) at the human 5-HT2B receptor was performed by Eurofins/Cerep (France) measuring the compound effects on inositol monophosphate (IP1) production using the HTRF detection method. Briefly, the human 5-HT2B receptor was expressed in transfected CHO cells. The cells were suspended in a buffer containing 10 mM Hepes/NaOH (pH 7.4), 4.2 mM KCl, 146 mM NaCl, 1 mM CaCl2, 0.5 mM MgCl2, 5.5 mM glucose and 50 mM LiCl, then distributed in microplates at a density of 4100 cells/well and incubated for 30 min at 37° C. in the presence of buffer (basal control), test compound or reference agonist. For stimulated control measurement, separate assay wells contained 1 μM 5-HT. Following incubation, the cells were lysed and the fluorescence acceptor (fluorophen D2-labeled IP1) and fluorescence donor (anti-IP1 antibody labeled with europium cryptate) were added. After 60 min at room temperature, the fluorescence transfer was measured at lambda(Ex) 337 nm and lambda(Em) 620 and 665 nm using a microplate reader (Rubystar, BMG). The IP1 concentration was determined by dividing the signal measured at 665 nm by that measured at 620 nm (ratio). The results were expressed as a percent of the control response to 1 μM 5-HT. The standard reference agonist was 5-HT, which was tested in each experiment at several concentrations to generate a concentration-response curve from which its EC50 value is calculated as described above for dopamine functional assays.

human D2 receptor = human D2 receptor (Homo sapiens (Human), UniProt P14416); assay: Dopamine D2 receptor agonism, calcium mobilization assay; assay type: cell-based; settings: normalized to 1 μM dopamine = 100%
Chain of human D2 receptor (P14416 whole entry): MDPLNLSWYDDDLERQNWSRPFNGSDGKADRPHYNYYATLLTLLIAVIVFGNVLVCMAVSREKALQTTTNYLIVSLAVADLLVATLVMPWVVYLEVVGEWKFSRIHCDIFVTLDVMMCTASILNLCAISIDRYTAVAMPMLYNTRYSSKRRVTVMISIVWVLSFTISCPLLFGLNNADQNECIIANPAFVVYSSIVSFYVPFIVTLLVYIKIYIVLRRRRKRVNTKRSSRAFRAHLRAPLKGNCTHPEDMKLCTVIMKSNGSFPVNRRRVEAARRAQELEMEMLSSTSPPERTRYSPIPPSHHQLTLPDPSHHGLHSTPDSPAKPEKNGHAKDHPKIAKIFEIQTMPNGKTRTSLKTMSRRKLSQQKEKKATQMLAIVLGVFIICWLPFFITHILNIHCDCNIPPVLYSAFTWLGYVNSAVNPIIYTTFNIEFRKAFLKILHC
Method: Dopamine D2 receptor agonism was measured using a calcium mobilization assay protocol developed by HD Biosciences (China). Briefly, HEK293/G15 cells expressing human D2 receptor were plated at a density of 15000 cells/well in clear-bottomed, Matrigel-coated 384-well plates and grown for 24 hrs at 37° C. in the presence of 5% CO2. The cells were incubated with calcium-sensitive fluorescent dye, Fluo8, for 60-90 minutes at 37° C. in the dark. Test compounds were prepared at 3-fold concentrated solution in 1×HBSS buffer with Ca^2+ and Mg^2+. Calcium Flux signal was immediately recorded after compounds were added from compound plate to cell plate at FLIPR (Molecular Devices). The fluorescence data were normalized to yield responses for no stimulation (buffer) and full stimulation (1 μM of dopamine) of 0% and 100% stimulation, respectively. Test compound potency (EC50) was estimated by nonlinear regression using the sigmoidal dose-response (variable slope) using Xlfit 4 (IDBS, Guildford, Surrey, UK, model 205). y=(A+((B−A)/(1+((C/x)^D)))) where y is the normalized ratio measurement for a given concentration of test compound, x is the concentration of test compound, A is the estimated efficacy at infinite compound dilution, and B is the maximal efficacy. C is the EC50 value and D is the Hill slope coefficient. EC50 estimates were obtained from independent experiment and the logarithmic average was calculated.

[3] = Liu et al., Bioorganic Med. Chem. (2008); cited from earlier work
hepatocytes from human = assay: Conversion to compound (I) in human hepatocytes; assay type: in vitro ADME; settings: 1 μg/mL, 37° C., 0.25-60 minutes, FIG. 7b
Method: (§2) The cell concentration at incubation was 1×10^6 viable cells/mL. The incubations were performed in glass tubes at 37° C. with a total incubation volume of 3.5 mL and with duplicate incubations for each test item. The 3.5 mL of hepatocyte suspension was equilibrated for 10 minutes in a water bath set to 37° C. where after the incubations were initiated by adding 3.5 μL of a stock solution of the test item in DMSO (Dimethyl sulfoxide) and gently inverting the tubes. The final solvent concentration in the incubations was 0.1% DMSO. Samples of 600 μL were withdrawn from the incubations at the pre-determined time points of 0.25, 5, 15, 30 and 60 minutes after ensuring homogeneity of hepatocyte suspensions. The withdrawn volume was added to 1 mL Nunc cryo tubes on wet ice containing 60 μL of ice cold ascorbic acid (100 mg/mL) and 30 μL of ice cold 100 mM saccharic acid 1.4-lactone in 0.5 M citric acid. The tubes were mixed and 35 μL of a solution of ice cold 20% formic acid was added. The tubes were mixed thoroughly and stored at −80° C. awaiting analysis. Analysis method and Instrumentation used for analysis of (I) from dosing (Id-ia), (Id-ib), (Id-iia) and (Id-iib), were the one described in Examples 4 and 5 below in the section “Instrumentation used for analysis of compound (I) from dosing of compounds (Ic), (Id-ia), (Id-ib), (Id-iia), (Id-iib), (Id-iab) and (Id-iiab).”
(§3) Analysis method and Instrumentation used for analysis of (I) from dosing (Id-iab) and (Id-iiab) consisted of mixing equal aliquots of the samples and precipitation solution (acetonitrile (MeCN) with 10% methanol (MeOH) and 1% formic acid), followed by centrifugation at 4° C. at 16000 g for 10 minutes. Supernatants were collected and analysed by LC-MS/MS. Mass spectrometer: Waters Acquity—Waters Xevo TQ-MS. Analytical column: Acquity UPLC HSS T3, 100×2.1 mm, 1.8 μm. Mobile phase A: 0.2% formic acid in water. Mobile phase B: 0.2% formic acid in acetonitrile. Gradient run from 95/5% to 60/40 in 5 min. Flow rate 0.3 mL/min. MRM monitoring of (I) in the study samples and in the analytical standards.

[4] = PK experiments in rats: plasma compound (I) after oral dosing of prodrugs; assay type: in vivo, Han Wistar rats; settings: Wistar rats, FIG. 2, doses equal to 287 μg/kg of compound (I)
Method: as §1
Mobile phase B: Acetonitrile. […] Flow rate 0.5 mL/min.
The rats had unrestricted access to the diet.
Mobile phase B: Acetonitrile+0.2% formic acid. […] Flow rate 0.3 mL/min.
Han Wistar rats were supplied by Envigo, UK. […] The rats received a standard laboratory diet Teklad 2014C. The rats had unrestricted access to the diet.

hepatocytes from rat = assay: Conversion to compound (I) in rat hepatocytes; assay type: in vitro ADME; settings: 1 μg/mL, 37° C., 0.25-60 minutes, FIG. 7a
Method: as §2, §3

human 5-HT2B receptor [5] = target: T1, human 5-HT2B receptor; assay: 5-HT2B radioligand binding assay ([125I](±)DOI); settings: 0.2 nM [125I](±)DOI, read-out: 5-HT2B binding affinity (% inhibition of control, specific binding at concentration indicated)
Method: Membrane homogenates prepared from CHO cells expressing the human 5HT2B receptor were incubated for 60 min at room temperature with 0.2 nM [125I](±)DOI (1-(4-iodo-2, 5-dimethoxyphenyl)propan-2-amine) in the absence or presence of the test compound in a buffer containing 50 mM Tris-HCl (pH 7.4), 5 mM MgCl2, 10 μM pargyline and 0.1% ascorbic acid. Nonspecific binding is determined in the presence of 1 μM (±)DOI. Following incubation, the samples were filtered rapidly under vacuum through glass fiber filters (GF/B, Packard) presoaked with 0.3% polyethyleneimine (PEI) and rinsed several times with ice-cold 50 mM Tris-HCl using a 96-sample cell harvester (Unifilter, Packard). The filters were dried and counted for radioactivity in a scintillation counter (Topcount, Packard) using a scintillation cocktail (Microscint 0, Packard). The results are expressed as a percent inhibition of the control radioligand specific binding. The standard reference compound was (±)DOI, which was tested in each experiment at several concentrations to obtain a competition curve from which its IC50 is calculated.

[6] = Stability of the disulfate in acidic conditions (LCMS); assay type: physicochemical; settings: LCMS with acidic eluent
[7] = in man after oral dosing; cited from earlier work

apomorphine in plasma at one time point [1]: 916 pg/mL
Compound: CN1CCc2cccc3c2[C@H]1Cc1ccc(O[C@@H]2O[C@H](C(=O)O)[C@@H](O)[C@H](O)[C@H]2O)c(O)c1-3 [(2S,3S,4S,5R,6S)-6-[[(6aR)-11-hydroxy-6-methyl-5,6,6a,7-tetrahydro-4H-dibenzo[de,g]quinolin-10-yl]oxy]-3,4,5-trihydroxy-tetrahydropyran-2-carboxylic acid]

Compound: CCCN1CCC[C@@H]2Cc3c(ccc(O)c3O)C[C@H]21 [(I), (4aR,10aR)-1-n-Propyl-1,2,3,4,4a,5,10,10a-octahydro-benzo[g]quinoline-6,7-diol, reference compound]
Emax (human D1 receptor): 99%
Emax (human 5-HT2B receptor [2]): 50%
Emax (human D2 receptor): 91%
oral bioavailability (in words) [3]: low oral bioavailability

Compound: CCCN1CCC[C@@H]2Cc3c(ccc(O[C@@H]4O[C@H](C(=O)O)[C@@H](O)[C@H](O)[C@H]4O)c3O[C@@H]3O[C@H](C(=O)O)[C@@H](O)[C@H](O)[C@H]3O)C[C@H]21 [(Id-iab), (2S,2′S,3S,3′S,4S,4′S,5R,5′R,6S,6′S)-6,6′-(((4aR,10aR)-1-propyl-1,2,3,4,4a,5,10,10a-octahydrobenzo[g]quinoline-6,7-diyl)bis(oxy))bis(3,4,5-trihydroxytetrahydro-2H-pyran-2-carboxylic acid)]
conversion to compound (I) in human hepatocytes (hepatocytes from human): time dependent conversion to compound (I)
plasma profile of compound (I) after oral dosing (in words) [4]: slower absorption rate avoiding rapid peak concentrations accompanied by a sustained exposure of compound (I) in plasma
conversion to compound (I) in rat hepatocytes (hepatocytes from rat): time dependent conversion to compound (I)
inhibition at 10 µM (human 5-HT2B receptor [5]): 17%

conversion to compound (I) in human hepatocytes (hepatocytes from human): could not be detected
conversion to compound (I) in rat hepatocytes (hepatocytes from rat): could not be detected
stability in acidic conditions (in words) [6]: instability
Compound: CCCN1CCC[C@@H]2Cc3c(ccc(OS(=O)(=O)O)c3OS(=O)(=O)O)C[C@H]21 [(Id-iiab), (4aR,10aR)-1-propyl-1,2,3,4,4a,5,10,10a-octahydrobenzo[g]quinoline-6,7-diyl bis(hydrogen sulfate)]
plasma profile of compound (I) after oral dosing (in words) [4]: slower absorption rate avoiding rapid peak concentrations accompanied by a sustained exposure of compound (I) in plasma

Compound: CCCc1cc2c(s1)CN[C@@H]1CCc3cc(OC(C)=O)c(OC(C)=O)cc3[C@@H]21 [Adrogolide]
oral bioavailability [7]: ~4%
